# Tested on: New Zealand White rabbits
# Assay: Intraocular pressure (IOP) in rabbits, topical dosing four times daily
# Assay type: in vivo
# Details: for Intraocular Pressure (MEAN): treated right eyes, A.M. readings
# Method: Seventy-five rabbits underwent two weeks of IOP training to condition them for IOP measurement. IOP was determined for both eyes of each animal using a Medtronic Solan, Model 30 classic pneumatonometer. Proparacaine hydrochloride 0.5% (1 drop) was delivered to each eye prior to IOP measurement. A two-point diurnal curve was established: IOP was recorded on Monday, Wednesday, and Friday of each week, at 8 a.m. and 12 p.m., with a ±1 hour range for each of these times. The time of the measurements was recorded.
# On Days 1-31, animals received daily topical doses of the appropriate test article into the right eye. Animals were dosed four times per day, with doses administered 2 hours apart. Doses were administered using a calibrated 50-μL pipette. The eyelids were held close for 10 seconds immediately following dosing. The time of each dose administration was recorded.
# Intraocular pressure (“IOP”) was determined for both eyes of each animal on Days 3, 5, 10, 12, 16, 18, 22, 24, 26, 30, and 32. IOP was evaluated with a Medtronic Solan, Model 30 classic pneumatonometer. Proparacaine hydrochloride 0.5% (1 drop) was delivered to each eye prior to IOP measurement. IOP was measured on Monday, Wednesday, and Friday of each week. A two-point diurnal curve was established: IOP was recorded at 8 a.m. and 12 p.m. on Day 3, and at 8 a.m. and 2 p.m. on later days, with a ±1 hour range for each of these times. The time of the measurements was recorded.
# Descriptive statistics were prepared for IOP data of each treatment group (left and right eyes separately) at each measurement interval. The statistics included the number of observations (“N”), mean, standard deviation (“STD”), and standard error (“SEM”). Statistical analyses were conducted on IOP results using Statistical Analysis Systems (SAS Institute, Inc., Cary, N.C., V8.0). Parameters were evaluated using analysis of variance/GLM Procedure followed by Tukey's Standardized Range Test (Tukey, 1985) for post hoc comparisons of group means. The level of significance was set at a probability of p<0.05 for all statistical procedures. Group IOP means were compared at each interval, with left and right eyes compared separately.
structure (smiles),measurement,setting,value
Cc1ccc2c(NCC(O)(CC(C)(C)c3cc(F)cc4c3OCC4)C(F)(F)F)cccc2n1 (stereo not drawn),"Intraocular Pressure in Untreated Left Eyes (A.M. Readings), MEAN","1 mg/g (Group D), Day 3",23.5 mmHg
same,"Intraocular Pressure in Untreated Left Eyes (A.M. Readings), MEAN","1 mg/g (Group D), Day 5",24.4 mmHg
same,"Intraocular Pressure in Untreated Left Eyes (A.M. Readings), MEAN","1 mg/g (Group D), Day 10",24.5 mmHg
same,"Intraocular Pressure in Untreated Left Eyes (A.M. Readings), MEAN","1 mg/g (Group D), Day 12",22.2 mmHg
same,"Intraocular Pressure in Untreated Left Eyes (A.M. Readings), MEAN","1 mg/g (Group D), Day 16",21.6 mmHg
same,"Intraocular Pressure in Untreated Left Eyes (A.M. Readings), MEAN","1 mg/g (Group D), Day 18",23.3 mmHg
same,"Intraocular Pressure in Untreated Left Eyes (A.M. Readings), MEAN","1 mg/g (Group D), Day 22",22.4 mmHg
same,"Intraocular Pressure in Untreated Left Eyes (A.M. Readings), MEAN","1 mg/g (Group D), Day 24",22.4 mmHg
same,"Intraocular Pressure in Untreated Left Eyes (A.M. Readings), MEAN","1 mg/g (Group D), Day 26",22.9 mmHg
same,"Intraocular Pressure in Untreated Left Eyes (A.M. Readings), MEAN","1 mg/g (Group D), Day 30",23.4 mmHg
same,"Intraocular Pressure in Untreated Left Eyes (A.M. Readings), MEAN","1 mg/g (Group D), Day 32",24.1 mmHg
same,"Intraocular Pressure in Untreated Left Eyes (A.M. Readings), MEAN","1 mg/g (Group D), Pre-Study",23.9 mmHg
same,"Intraocular Pressure in Untreated Left Eyes (A.M. Readings), MEAN","5 mg/g (Group C), Day 3",23.8 mmHg
same,"Intraocular Pressure in Untreated Left Eyes (A.M. Readings), MEAN","5 mg/g (Group C), Day 5",24.4 mmHg
same,"Intraocular Pressure in Untreated Left Eyes (A.M. Readings), MEAN","5 mg/g (Group C), Day 10",24.6 mmHg
same,"Intraocular Pressure in Untreated Left Eyes (A.M. Readings), MEAN","5 mg/g (Group C), Day 12",23.8 mmHg
same,"Intraocular Pressure in Untreated Left Eyes (A.M. Readings), MEAN","5 mg/g (Group C), Day 16",23.4 mmHg
same,"Intraocular Pressure in Untreated Left Eyes (A.M. Readings), MEAN","5 mg/g (Group C), Day 18",21.9 mmHg
same,"Intraocular Pressure in Untreated Left Eyes (A.M. Readings), MEAN","5 mg/g (Group C), Day 22",21.6 mmHg
same,"Intraocular Pressure in Untreated Left Eyes (A.M. Readings), MEAN","5 mg/g (Group C), Day 24",22.1 mmHg
same,"Intraocular Pressure in Untreated Left Eyes (A.M. Readings), MEAN","5 mg/g (Group C), Day 26",21.7 mmHg
same,"Intraocular Pressure in Untreated Left Eyes (A.M. Readings), MEAN","5 mg/g (Group C), Day 30",22.6 mmHg
same,"Intraocular Pressure in Untreated Left Eyes (A.M. Readings), MEAN","5 mg/g (Group C), Day 32",23.1 mmHg
same,"Intraocular Pressure in Untreated Left Eyes (A.M. Readings), MEAN","5 mg/g (Group C), Pre-Study",24.2 mmHg
same,"Intraocular Pressure in Untreated Left Eyes (A.M. Readings), MEAN","10 mg/g (Group B), Day 3",23.3 mmHg
same,"Intraocular Pressure in Untreated Left Eyes (A.M. Readings), MEAN","10 mg/g (Group B), Day 5",23.4 mmHg
same,"Intraocular Pressure in Untreated Left Eyes (A.M. Readings), MEAN","10 mg/g (Group B), Day 10",24.0 mmHg
same,"Intraocular Pressure in Untreated Left Eyes (A.M. Readings), MEAN","10 mg/g (Group B), Day 12",23.8 mmHg
same,"Intraocular Pressure in Untreated Left Eyes (A.M. Readings), MEAN","10 mg/g (Group B), Day 16",22.9 mmHg
same,"Intraocular Pressure in Untreated Left Eyes (A.M. Readings), MEAN","10 mg/g (Group B), Day 18",21.2 mmHg
same,"Intraocular Pressure in Untreated Left Eyes (A.M. Readings), MEAN","10 mg/g (Group B), Day 22",21.8 mmHg
same,"Intraocular Pressure in Untreated Left Eyes (A.M. Readings), MEAN","10 mg/g (Group B), Day 24",20.2 mmHg
same,"Intraocular Pressure in Untreated Left Eyes (A.M. Readings), MEAN","10 mg/g (Group B), Day 26",21.7 mmHg
same,"Intraocular Pressure in Untreated Left Eyes (A.M. Readings), MEAN","10 mg/g (Group B), Day 30",22.7 mmHg
same,"Intraocular Pressure in Untreated Left Eyes (A.M. Readings), MEAN","10 mg/g (Group B), Day 32",22.9 mmHg
same,"Intraocular Pressure in Untreated Left Eyes (A.M. Readings), MEAN","10 mg/g (Group B), Pre-Study",23.8 mmHg
same,Intraocular Pressure (MEAN),"Day 3, 1 mg/g (Group D)",23.0 mmHg
same,Intraocular Pressure (MEAN),"Day 3, 5 mg/g (Group C)",23.7 mmHg
same,Intraocular Pressure (MEAN),"Day 3, 10 mg/g (Group B)",22.7 mmHg
same,Intraocular Pressure (MEAN),"Day 5, 1 mg/g (Group D)",24.7 mmHg
same,Intraocular Pressure (MEAN),"Day 5, 5 mg/g (Group C)",24.7 mmHg
same,Intraocular Pressure (MEAN),"Day 5, 10 mg/g (Group B)",23.8 mmHg
same,Intraocular Pressure (MEAN),"Day 10, 1 mg/g (Group D)",24.8 mmHg
same,Intraocular Pressure (MEAN),"Day 10, 5 mg/g (Group C)",25.2 mmHg
same,Intraocular Pressure (MEAN),"Day 10, 10 mg/g (Group B)",24.5 mmHg
same,Intraocular Pressure (MEAN),"Day 12, 1 mg/g (Group D)",23.4 mmHg
same,Intraocular Pressure (MEAN),"Day 12, 5 mg/g (Group C)",25.0 mmHg
same,Intraocular Pressure (MEAN),"Day 12, 10 mg/g (Group B)",23.9 mmHg
same,Intraocular Pressure (MEAN),"Day 16, 1 mg/g (Group D)",22.1 mmHg
same,Intraocular Pressure (MEAN),"Day 16, 5 mg/g (Group C)",24.3 mmHg
same,Intraocular Pressure (MEAN),"Day 16, 10 mg/g (Group B)",23.4 mmHg
same,Intraocular Pressure (MEAN),"Day 18, 1 mg/g (Group D)",23.7 mmHg
same,Intraocular Pressure (MEAN),"Day 18, 5 mg/g (Group C)",23.9 mmHg
same,Intraocular Pressure (MEAN),"Day 18, 10 mg/g (Group B)",22.3 mmHg
same,Intraocular Pressure (MEAN),"Day 22, 1 mg/g (Group D)",23.2 mmHg
same,Intraocular Pressure (MEAN),"Day 22, 5 mg/g (Group C)",22.4 mmHg
same,Intraocular Pressure (MEAN),"Day 22, 10 mg/g (Group B)",22.4 mmHg
same,Intraocular Pressure (MEAN),"Day 24, 1 mg/g (Group D)",22.1 mmHg
same,Intraocular Pressure (MEAN),"Day 24, 5 mg/g (Group C)",23.8 mmHg
same,Intraocular Pressure (MEAN),"Day 24, 10 mg/g (Group B)",21.2 mmHg
same,Intraocular Pressure (MEAN),"Day 26, 1 mg/g (Group D)",23.1 mmHg
same,Intraocular Pressure (MEAN),"Day 26, 5 mg/g (Group C)",22.1 mmHg
same,Intraocular Pressure (MEAN),"Day 26, 10 mg/g (Group B)",21.8 mmHg
same,Intraocular Pressure (MEAN),"Day 30, 1 mg/g (Group D)",24.2 mmHg
same,Intraocular Pressure (MEAN),"Day 30, 5 mg/g (Group C)",22.9 mmHg
same,Intraocular Pressure (MEAN),"Day 30, 10 mg/g (Group B)",22.7 mmHg
same,Intraocular Pressure (MEAN),"Day 32, 1 mg/g (Group D)",24.9 mmHg
same,Intraocular Pressure (MEAN),"Day 32, 5 mg/g (Group C)",23.4 mmHg
same,Intraocular Pressure (MEAN),"Day 32, 10 mg/g (Group B)",23.9 mmHg
same,Intraocular Pressure (MEAN),"Pre-Study, 1 mg/g (Group D)",24.4 mmHg
same,Intraocular Pressure (MEAN),"Pre-Study, 5 mg/g (Group C)",24.8 mmHg
same,Intraocular Pressure (MEAN),"Pre-Study, 10 mg/g (Group B)",24.0 mmHg

# — patent US20080058373A1, “Compositions and Methods for Treating or Preventing Glaucoma or Progression Thereof” (priority 2006, published 2008)
